Reference: patent US6939569B1, “Medical device having anti-infective and contraceptive properties” (Oxibio, Inc., priority 1998, dated 2005)

What was measured:
C. albicans (ATCC 66027) = experiment: Microbicidal activity of iodate/iodide silicone tablet formulations in inoculated BHI, pH 4.0; format: cell-based; conditions: together with iodate threshold
Protocol: Experiments were performed to optimize formulations used in fabricating the inventive device formulated with silicone elastomer. […] The polymer was allowed to cure with dibutyl tin dilaurate catalyst additions, and then devices were prepared (0.6 cm diameter 0.3 mm thick) using “hole punch” tablets from the disc shaped device to test for microbicidal activity using C. albicans inoculated BHI. […] Tablets obtained from the fabricated device were suspended in the inoculum at 1 tablet/ml. At varying intervals, aliquots of the inoculum, incubated at 35° C. in air, were subcultured to sheep blood agar plates and incubated for an additional 24 hours at 35° C. in air to determine the effect of the varying formulations on the C. albicans inoculums.

SMILES	elemental iodine concentrations required to affect microbial killing (C. albicans)	critical media concentration of iodide necessary to effect C. albicans killing (C. albicans (ATCC 66027))
II [elemental iodine]	< 0.01%	–
I [iodide]	–	≥ 0.5 mM
